The text below walks through data of patent US9717748B2, “Compositions and methods for treating an infection” (CMPD LICENSING, LLC, priority 2015, dated 2017).

One experiment concerns Aspergillus flavus. The experiment is described as follows: Expected efficacy of antifungal agents.
In another experiment the test system is Aspergillus fumigatus. The experiment in a line: Expected efficacy of antifungal agents.
A further experiment has as its system Cryptococcus neoformans. The experiment is described as follows: Expected efficacy of antifungal agents.
Experiment [1] deals with Trichophyton mentagrophytes. The experiment is described as follows: Expected efficacy of antifungal agents.
In a further experiment the test system is Leishmania infantum. The experiment in a line: Expected efficacy of antifungal agents.
The subject of the next experiment is Bacteroides fragilis. The experiment is described as follows: Expected efficacy of antibiotic agents. The following applies: Gram: anaer.
In the next experiment the test system is Clostridium difficile. The experiment in a line: Expected efficacy of antibiotic agents. The following applies: Gram: anaer.
The next experiment deals with Clostridium perfringens. The following applies: Gram: anaer.
Another experiment concerns Chlamydia pneumoniae. The experiment is described as follows: Expected efficacy of antibiotic agents. Particulars: Gram: n/a.
A further experiment relates to Chlamydia psittaci. The following applies: Gram: n/a.
In the next experiment the test system is Chlamydia trachomatis. The experiment is described as follows: Expected efficacy of antibiotic agents. The following applies: Gram: n/a.
The subject of a further experiment is Mycoplasma pneumoniae. The experiment is described as follows: Expected efficacy of antibiotic agents. Particulars: Gram: n/a.
In another experiment the test system is Acinetobacter baumannii. The experiment is described as follows: Expected efficacy of antibiotic agents. Particulars: Gram: neg.
Experiment [2] deals with Acinetobacter calcoaceticus. The experiment in a line: Expected efficacy of antibiotic agents. Particulars: Gram: neg.
The subject of the next experiment is Acinetobacter lwoffii. The experiment in a line: Expected efficacy of antibiotic agents. Particulars: Gram: neg.
Another experiment deals with Bordetella pertussis. The experiment is described as follows: Expected efficacy of antibiotic agents. Particulars: Gram: neg.
The next experiment relates to Campylobacter jejuni. The experiment in a line: Expected efficacy of antibiotic agents. Particulars: Gram: neg.
The test system of a further experiment is Citrobacter freundii. The experiment is described as follows: Expected efficacy of antibiotic agents. The following applies: Gram: neg.
For a further experiment, the system named is Enterobacter cloacae. The experiment is described as follows: Expected efficacy of antibiotic agents. The following applies: Gram: neg.
The next experiment deals with Enterobacter sakazakii. The experiment is described as follows: Expected efficacy of antibiotic agents. The following applies: Gram: neg.
Another experiment relates to Haemophilus ducreyi. The experiment is described as follows: Expected efficacy of antibiotic agents. Particulars: Gram: neg.
Experiment [3] deals with Klebsiella (Calymmato-bacterium) granulomatis. The experiment is described as follows: Expected efficacy of antibiotic agents. Particulars: Gram: neg.
The next experiment deals with Klebsiella pneumoniae. The experiment is described as follows: Expected efficacy of antibiotic agents. The following applies: Gram: neg.
In a further experiment the test system is Legionella pneumophila. Particulars: Gram: neg.
For the next experiment, the system named is Moraxella catarrhalis. The experiment is described as follows: Expected efficacy of antibiotic agents. The following applies: Gram: neg.
A further experiment deals with Neisseria gonorrhoeae. The experiment in a line: Expected efficacy of antibiotic agents. Particulars: Gram: neg.
Another experiment concerns Neisseria meningitidis. The experiment in a line: Expected efficacy of antibiotic agents. Particulars: Gram: neg.
The next experiment deals with Proteus mirabilis. The experiment is described as follows: Expected efficacy of antibiotic agents. The following applies: Gram: neg.
The subject of the next experiment is Pseudomonas aeruginosa. The experiment in a line: Expected efficacy of antibiotic agents. The following applies: Gram: neg.
A further experiment has as its system Shigella dysenteriae. The experiment is described as follows: Expected efficacy of antibiotic agents. The following applies: Gram: neg.
Another experiment deals with Shigella flexneri. The experiment is described as follows: Expected efficacy of antibiotic agents. Particulars: Gram: neg.
A further experiment relates to Shigella sonnei. The experiment is described as follows: Expected efficacy of antibiotic agents. The following applies: Gram: neg.
Another experiment deals with Vibrio cholerae. The experiment in a line: Expected efficacy of antibiotic agents. The following applies: Gram: neg.
In a further experiment the test system is Yersinia pestis. Particulars: Gram: neg.
A further experiment concerns Corynebacterium jeikeium. The experiment is described as follows: Expected efficacy of antibiotic agents. The following applies: Gram: pos.
Experiment [4] relates to Corynebacterium urealyticum. The experiment in a line: Expected efficacy of antibiotic agents. Particulars: Gram: pos.
The next experiment has as its system Diphtheroids. The experiment in a line: Expected efficacy of antibiotic agents. The following applies: Gram: pos.
The subject of the next experiment is Enterococcus faecalis. The experiment in a line: Expected efficacy of antibiotic agents. The following applies: Gram: pos.
The test system of the next experiment is Enterococcus faecium. The experiment is described as follows: Expected efficacy of antibiotic agents. The following applies: Gram: pos.
Experiment [5] deals with Methicillin resistant staphaureus (MRSA). The experiment is described as follows: Expected efficacy of antibiotic agents. The following applies: Gram: pos.
In another experiment the test system is Peptostreptococcus. The experiment is described as follows: Expected efficacy of antibiotic agents. The following applies: Gram: pos.
Experiment [6] deals with Staphylococcus aureus (MSSA). The experiment is described as follows: Expected efficacy of antibiotic agents. The following applies: Gram: pos.
In experiment [7] the test system is Staphylococcus epidermidis. The experiment in a line: Expected efficacy of antibiotic agents. Particulars: Gram: pos.
In another experiment the test system is Streptococcus agalactiae. The experiment is described as follows: Expected efficacy of antibiotic agents. The following applies: Gram: pos.
The test system of another experiment is Streptococcus pneumoniae. The experiment is described as follows: Expected efficacy of antibiotic agents. Particulars: Gram: pos.
The subject of another experiment is Streptococcus pyogenes. The experiment is described as follows: Expected efficacy of antibiotic agents. The following applies: Gram: pos.
Experiment [8] concerns Viridans group streptococci. The experiment is described as follows: Expected efficacy of antibiotic agents. Particulars: Gram: pos.
A further experiment concerns Scedosporium apiospermum. The experiment in a line: Expected efficacy of antifungal agents.

Take `CCC(C)n1ncn(-c2ccc(N3CCN(c4ccc(OC[C@H]5CO[C@](Cn6cncn6)(c6ccc(Cl)cc6Cl)O5)cc4)CC3)cc2)c1=O` (mixture of isomers) [Itraconazole]: the “Expected efficacy against Aspergillus flavus” value in the experiment on Aspergillus flavus is given as “yes”. In the experiment on Aspergillus fumigatus, the “Expected efficacy against Aspergillus fumigatus” value was “yes”. Further, the “Expected efficacy against Coccidioides immitis” value with Coccidioides immitis is given as “yes”. Besides, the “Expected efficacy against Cryptococcus neoformans” value in the experiment with Cryptococcus neoformans was “yes”. The “Expected efficacy against Trichophyton mentagrophytes” value in [1] is given as “yes”.
As for `C[C@@H]1[C@H](O)[C@@H](C)/C=C/C=C/C=C/C=C/C=C/C=C/C=C/[C@H](O[C@@H]2O[C@H](C)[C@@H](O)[C@H](N)[C@@H]2O)C[C@@H]2O[C@](O)(C[C@@H](O)C[C@@H](O)[C@H](O)CC[C@@H](O)C[C@@H](O)CC(=O)O[C@H]1C)C[C@H](O)[C@H]2C(=O)O` [Amphotericin], the “Expected efficacy against Aspergillus flavus” value with Aspergillus flavus is “yes”. Further, in the experiment on Aspergillus fumigatus, the “Expected efficacy against Aspergillus fumigatus” value is reported as “yes”. Further, the “Expected efficacy against Coccidioides immitis” value in the experiment on Coccidioides immitis is recorded as “yes”. Also, the “Expected efficacy against Cryptococcus neoformans” value in the experiment with Cryptococcus neoformans is recorded as “yes”. For the same compound, in the experiment on Leishmania infantum, the “Expected efficacy against Leishmania infantum” value is reported as “yes”.
Take `NC[C@H]1O[C@H](O[C@H]2[C@H](O)[C@@H](O[C@H]3O[C@H](CO)[C@@H](O)[C@H](N)[C@H]3O)[C@H](N)C[C@@H]2N)[C@H](N)C[C@@H]1O` [Tobramycin]: the “Expected efficacy against Bacteroides fragilis” value in the experiment on Bacteroides fragilis was “no”. For the same compound, the “Expected efficacy against Clostridium difficile” value in the experiment with Clostridium difficile was “no”. Further, the “Expected efficacy against Clostridium perfringens” value in the experiment with Clostridium perfringens is given as “no”. Also, the “Expected efficacy against Chlamydia pneumoniae” value with Chlamydia pneumoniae is on record as “no”. Moreover, in the experiment on Chlamydia psittaci, the “Expected efficacy against Chlamydia psittaci” value is recorded as “no”. In addition, the “Expected efficacy against Chlamydia trachomatis” value in the experiment on Chlamydia trachomatis is reported as “no”. Besides, the “Expected efficacy against Mycoplasma pneumoniae” value in the experiment on Mycoplasma pneumoniae is listed as “no”. Further, the “Expected efficacy against Acinetobacter baumannii” value with Acinetobacter baumannii is recorded as “no”. For the same compound, in [2], the “Expected efficacy against Acinetobacter calcoaceticus” value is recorded as “no”. The “Expected efficacy against Acinetobacter lwoffii” value with Acinetobacter lwoffii is “no”. The “Expected efficacy against Bordetella pertussis” value in the experiment on Bordetella pertussis is given as “no”. The “Expected efficacy against Campylobacter jejuni” value in the experiment with Campylobacter jejuni is given as “yes”. In addition, the “Expected efficacy against Citrobacter freundii” value in the experiment on Citrobacter freundii is recorded as “yes”. Moreover, the “Expected efficacy against Enterobacter cloacae” value in the experiment on Enterobacter cloacae is “yes”. Moreover, in the experiment on Enterobacter sakazakii, the “Expected efficacy against Enterobacter sakazakii” value was “yes”. In addition, in the experiment with Haemophilus ducreyi, the “Expected efficacy against Haemophilus ducreyi” value was “yes”. Also, the “Expected efficacy against Klebsiella (Calymmato-bacterium) granulomatis” value in [3] is on record as “yes”. Also, the “Expected efficacy against Klebsiella pneumoniae” value in the experiment with Klebsiella pneumoniae is given as “yes”. In addition, in the experiment on Legionella pneumophila, the “Expected efficacy against Legionella pneumophila” value is listed as “no”. The “Expected efficacy against Moraxella catarrhalis” value in the experiment on Moraxella catarrhalis is on record as “yes”. Also, in the experiment on Neisseria gonorrhoeae, the “Expected efficacy against Neisseria gonorrhoeae” value is on record as “no”. For the same compound, the “Expected efficacy against Neisseria meningitidis” value in the experiment on Neisseria meningitidis is reported as “no”. Moreover, the “Expected efficacy against Proteus mirabilis” value in the experiment on Proteus mirabilis is “yes”. Moreover, the “Expected efficacy against Pseudomonas aeruginosa” value in the experiment on Pseudomonas aeruginosa is recorded as “yes”. Further, the “Expected efficacy against Shigella dysenteriae” value in the experiment on Shigella dysenteriae was “yes”. In the experiment with Shigella flexneri, the “Expected efficacy against Shigella flexneri” value is listed as “yes”. Also, the “Expected efficacy against Shigella sonnei” value in the experiment on Shigella sonnei is “yes”. Further, in the experiment on Vibrio cholerae, the “Expected efficacy against Vibrio cholerae” value is “no”. The “Expected efficacy against Yersinia pestis” value in the experiment with Yersinia pestis is “yes”. The “Expected efficacy against Corynebacterium jeikeium” value with Corynebacterium jeikeium is given as “no”. Besides, the “Expected efficacy against Corynebacterium urealyticum” value in [4] is reported as “no”. For the same compound, the “Expected efficacy against Diphtheroids” value with Diphtheroids is listed as “no”. In addition, the “Expected efficacy against Enterococcus faecalis” value in the experiment with Enterococcus faecalis is given as “no”. Also, the “Expected efficacy against Enterococcus faecium” value in the experiment on Enterococcus faecium is recorded as “no”. The “Expected efficacy against Methicillin resistant staphaureus (MRSA)” value in experiment [5] is on record as “no”. Moreover, the “Expected efficacy against Peptostreptococcus” value in the experiment with Peptostreptococcus is listed as “no”. In [6], the “Expected efficacy against Staphylococcus aureus (MSSA)” value was “no”. Also, the “Expected efficacy against Staphylococcus epidermidis” value in experiment [7] is “no”. Also, the “Expected efficacy against Streptococcus agalactiae” value with Streptococcus agalactiae is “no”. Moreover, the “Expected efficacy against Streptococcus pneumoniae” value in the experiment on Streptococcus pneumoniae was “no”. Also, the “Expected efficacy against Streptococcus pyogenes” value in the experiment with Streptococcus pyogenes was “no”. Besides, the “Expected efficacy against Viridans group streptococci” value in experiment [8] was “no”.
As for `C[C@@H](c1ncncc1F)[C@](O)(Cn1cncn1)c1ccc(F)cc1F` [Voriconazole], the “Expected efficacy against Aspergillus flavus” value in the experiment with Aspergillus flavus is given as “yes”. Besides, the “Expected efficacy against Aspergillus fumigatus” value with Aspergillus fumigatus is given as “yes”. For the same compound, the “Expected efficacy against Scedosporium apiospermum” value with Scedosporium apiospermum is reported as “yes”.
